Assay results from the NIST ThermoML archive (doi:10.1021/acs.jced.7b00039).
± gives the expanded uncertainty stated by the source.

Experiment: wn = mass fraction of the nth substance listed
Conditions: 100 kPa, Liquid; for viscosity: Cone and plate viscometry; for mass density: Vibrating tube method

## CC(CC(C)(C)C)CP(=O)([O-])CC(C)CC(C)(C)C.CCCCCCCCCCCCCC[P+](CCCCCC)(CCCCCC)CCCCCC + CCCC(=O)O
298 K, w2 = 0
  viscosity: 1023 ± 120 mPa·s
  mass density: 884.09 ± 9.7 kg/m3
298 K, w2 = 0.0122
  viscosity: 952 ± 110 mPa·s
  mass density: 886.44 ± 9.7 kg/m3
298 K, w2 = 0.0346
  viscosity: 785 ± 90 mPa·s
  mass density: 892.23 ± 9.7 kg/m3
298 K, w2 = 0.0349
  viscosity: 787 ± 91 mPa·s
  mass density: 889.81 ± 9.6 kg/m3
298 K, w2 = 0.0684
  viscosity: 562 ± 63 mPa·s
  mass density: 893.84 ± 9.6 kg/m3
298 K, w2 = 0.14
  viscosity: 348 ± 38 mPa·s
  mass density: 899.77 ± 9.5 kg/m3
298 K, w2 = 0.242
  viscosity: 216 ± 23 mPa·s
  mass density: 909.13 ± 9.5 kg/m3
298 K, w2 = 0.301
  viscosity: 159 ± 17 mPa·s
  mass density: 914.05 ± 9.4 kg/m3
298 K, w2 = 0.375
  viscosity: 92.7 ± 9.6 mPa·s
  mass density: 919.8 ± 9.4 kg/m3
298 K, w2 = 0.44
  viscosity: 56.9 ± 5.9 mPa·s
  mass density: 924.13 ± 9.4 kg/m3
298 K, w2 = 0.491
  viscosity: 38.8 ± 4 mPa·s
  mass density: 927.26 ± 9.4 kg/m3
298 K, w2 = 0.715
  viscosity: 7.55 ± 0.79 mPa·s
  mass density: 939.25 ± 9.4 kg/m3
298 K, w2 = 0.991
  viscosity: 1.69 ± 0.17 mPa·s
  mass density: 953.5 ± 9.5 kg/m3
310 K, w2 = 0
  viscosity: 521 ± 59 mPa·s
  mass density: 876.93 ± 9.6 kg/m3
310 K, w2 = 0.0122
  viscosity: 465 ± 52 mPa·s
  mass density: 879.26 ± 9.6 kg/m3
310 K, w2 = 0.0346
  viscosity: 389 ± 43 mPa·s
  mass density: 884.71 ± 9.6 kg/m3
310 K, w2 = 0.0349
  viscosity: 388 ± 43 mPa·s
  mass density: 882.5 ± 9.6 kg/m3
310 K, w2 = 0.0684
  viscosity: 278 ± 30 mPa·s
  mass density: 886.39 ± 9.5 kg/m3
310 K, w2 = 0.14
  viscosity: 181 ± 19 mPa·s
  mass density: 892.33 ± 9.4 kg/m3
310 K, w2 = 0.242
  viscosity: 118 ± 12 mPa·s
  mass density: 901.49 ± 9.4 kg/m3
310 K, w2 = 0.301
  viscosity: 87.9 ± 9.1 mPa·s
  mass density: 906.22 ± 9.3 kg/m3
310 K, w2 = 0.375
  viscosity: 53.5 ± 5.5 mPa·s
  mass density: 911.62 ± 9.3 kg/m3
310 K, w2 = 0.44
  viscosity: 34.4 ± 3.5 mPa·s
  mass density: 915.64 ± 9.3 kg/m3
310 K, w2 = 0.491
  viscosity: 24.6 ± 2.5 mPa·s
  mass density: 918.52 ± 9.3 kg/m3
310 K, w2 = 0.715
  viscosity: 5.51 ± 0.56 mPa·s
  mass density: 929.27 ± 9.3 kg/m3
310 K, w2 = 0.991
  viscosity: 1.39 ± 0.14 mPa·s
  mass density: 941.63 ± 9.4 kg/m3
318 K, w2 = 0
  viscosity: 345 ± 38 mPa·s
  mass density: 872.2 ± 9.5 kg/m3
318 K, w2 = 0.0122
  viscosity: 304 ± 33 mPa·s
  mass density: 874.5 ± 9.5 kg/m3
318 K, w2 = 0.0346
  viscosity: 257 ± 28 mPa·s
  mass density: 879.8 ± 9.5 kg/m3
318 K, w2 = 0.0349
  viscosity: 255 ± 28 mPa·s
  mass density: 877.64 ± 9.5 kg/m3
318 K, w2 = 0.0684
  viscosity: 185 ± 20 mPa·s
  mass density: 881.5 ± 9.5 kg/m3
318 K, w2 = 0.14
  viscosity: 123 ± 13 mPa·s
  mass density: 887.48 ± 9.4 kg/m3
318 K, w2 = 0.242
  viscosity: 82.2 ± 8.5 mPa·s
  mass density: 896.4 ± 9.3 kg/m3
318 K, w2 = 0.301
  viscosity: 62.1 ± 6.4 mPa·s
  mass density: 901 ± 9.3 kg/m3
318 K, w2 = 0.375
  viscosity: 38.9 ± 4 mPa·s
  mass density: 906.17 ± 9.3 kg/m3
318 K, w2 = 0.44
  viscosity: 25.5 ± 2.6 mPa·s
  mass density: 909.99 ± 9.2 kg/m3
318 K, w2 = 0.491
  viscosity: 18.8 ± 1.9 mPa·s
  mass density: 912.71 ± 9.2 kg/m3
318 K, w2 = 0.715
  viscosity: 4.56 ± 0.47 mPa·s
  mass density: 922.63 ± 9.3 kg/m3
318 K, w2 = 0.991
  viscosity: 1.23 ± 0.12 mPa·s
  mass density: 933.77 ± 9.3 kg/m3
